In brackets after ≈: the same amount, converted by molar mass.
conditions: buffer; pH 7.4; 200.0 µM

solubility kinetic [µg/mL] | SMILES
> 49.1 | O=C1CN(C(=O)/C=C/c2cc(Br)ccc2F)CCN1
> 42.7 | O=C(NC(=S)N1CCCCC1CO)c1cccs1 (stereo not given)
13 (≈ 41.9 µM) | O=C(CNC(=O)c1ccc2ccccc2c1)NC1CCCCC1
< 0.2 | Cc1nc(-c2noc(-c3cccc(Cl)c3)n2)c(C(F)(F)F)o1
6.7 (≈ 23.2 µM) | Cc1ccccc1NC(=O)C(NC1CCCCC1)C(C)C (stereo not given)
> 49.1 | COc1ccc(CC(=O)NC(C)CCc2ccccc2)cc1OC (stereo not given)
32.5 (≈ 97.1 µM) | Cc1cccc(OCC(=O)OCC(=O)Nc2ccc(Cl)cn2)c1
> 50.3 | CC(NC(=O)c1ccccc1C(=O)O)c1ccc(-n2ccnc2)cc1 (stereo not given)
> 43.3 | COc1ccc(NC(=O)CN2CCN(CC#N)CC2)cc1
> 47.8 | CN(C(=O)CCn1c(=S)oc2ccccc21)C1CCCCC1
> 56.8 | CCOC(=O)CCCNC(=O)CCNC(=O)c1ccc(OCC(C)C)cc1
< 0.7 | NC(=O)COc1ccc2cc(-c3ccc(F)cc3)c(=O)oc2c1
15.7 (≈ 57 µM) | COC(=O)CC(c1ccc(F)cc1)n1c(C)ccc1C (stereo not given)
> 72.4 | O=C(COc1ccc2c(-c3ccccc3)cc(=O)oc2c1)NC(Cc1c[nH]c2ccccc12)C(=O)O (stereo not given)
27 (≈ 101 µM) | O=C(CSc1cccc[n+]1[O-])N1CCCCCC1
> 36 | CCOC(=O)Nc1ccc(OC)c([N+](=O)[O-])c1
0.4 (≈ 1.34 µM) | CCCc1nc2sc3c(=O)[nH]cnc3c2c2c1CCCC2
> 45.1 | COC(=O)c1cc(S(=O)(=O)NCc2cccs2)c[nH]1
6 (≈ 13.9 µM) | O=C(OCC(=O)N1CCC(Cc2ccccc2)CC1)c1cc(Br)ccc1O
> 45.4 | CN(C)C(=S)SCCn1c(N)nc(N(C)C)nc1=O
> 42.6 | Cc1nc(-c2cccc(NC(=O)c3ccco3)c2)cs1
45.3 (≈ 130 µM) | COCCn1c(C)cc(C(=O)CSc2nc(C)c(C)c(C)n2)c1C
> 33.3 | COC(=O)CCCNC(=O)c1ccccn1
31.8 (≈ 143 µM) | Cc1ccc(Cc2nc3ccccc3[nH]2)cc1

solubility kinetic [µg/mL] | SMILES
> 42.2 | Cc1ccc(C(=O)OCC(=O)NC2CCCCC2)s1
4.6 (≈ 10.4 µM) | COC(=O)c1ccc(CNC(=O)COC(=O)/C=C/c2cc(OC)c(OC)c(OC)c2)cc1
1.2 (≈ 3.76 µM) | COc1ccc(Nc2c(-c3ccco3)nc3cccc(C)n23)cc1
> 34.2 | O=C(O)c1ccccc1NCc1cccnc1
> 48.4 | Cc1ccc(S(=O)(=O)N2CCC(C(=O)NC3CC3)CC2)cc1
14.6 (≈ 47.4 µM) | NC(=O)Cn1cc(C(=O)COc2ccccc2)c2ccccc21
> 39.4 | NNC(=O)CCN1CCN(Cc2ccccc2)CC1
> 48.1 | O=C1COc2ccc(C(=O)C[n+]3cccc(O)c3)cc2N1.[Cl-]
> 45.7 | CCCNC(=O)c1ccccc1SCc1c(C)noc1C
4.6 (≈ 13.9 µM) | O=c1c(Cc2ccc(Cl)cc2)c(O)ccn1Cc1cccs1
> 47.3 | OCC1(Cc2ccccc2)CCN(CCCC2CCCC2)CC1
> 40.2 | COc1ccc(Cc2nc3ccccc3[nH]2)cc1OC
3.5 (≈ 9.7 µM) | Cc1ccc(NC(=S)Nc2ccc(OC(F)F)c(Cl)c2)cc1F
> 46 | CC(=O)Nc1ccc(S(=O)(=O)Nc2nccc(C)n2)cc1
0.9 (≈ 2.96 µM) | CSc1ncccc1C(=O)OCc1ccc([N+](=O)[O-])cc1
3.7 (≈ 11.1 µM) | N#C/C(=C\C=C\c1ccccc1[N+](=O)[O-])C(=O)NCc1ccccc1
> 42.7 | O=Cc1cn(CC(=O)N2CCCCCC2)c2ccccc12
> 50.6 | Cc1c(C(=O)N2CCN(C)CC2)oc2ccc(Br)cc12
> 40.8 | O=C(NCc1ccncc1)Nc1cccc([N+](=O)[O-])c1
> 55.2 | COc1ccc(C(=O)CSc2[nH]c(=O)cc(C(F)(F)F)c2C#N)cc1
> 53.4 | Cc1nn(C)c(C)c1NC(=O)COc1ccc(F)cc1Br
9.6 (≈ 33.5 µM) | C=CCOC(=O)C1=C(C)OC(N)=C(C#N)C1c1ccco1 (stereo not given)
40.1 (≈ 143 µM) | COc1ccc(OC)c(C2NC(=O)CCC2[N+](=O)[O-])c1 (stereo not given)
12.4 (≈ 31.3 µM) | Cc1ccc(NC(=O)c2ccc(Cl)nc2)cc1S(=O)(=O)N1CCOCC1

solubility kinetic [µg/mL] | SMILES
> 59.5 | CC1CCCC(NC(=O)CN2C(=O)NC(Cc3c[nH]c4ccccc34)C2=O)C1C (stereo not given)
5.8 (≈ 18.4 µM) | CCN1C(=O)c2ccc(C(=O)Nc3ncc(C)s3)cc2C1=O
> 41.8 | CCCCNC(=O)COC(=O)c1ccc(N(C)C)cc1
> 37.9 | COc1ccc(C=O)cc1Cn1ccnc1.Cl
44.7 (≈ 133 µM) | CC(C)C(NS(=O)(=O)c1cc(C(=O)O)ccc1Cl)C(=O)O (stereo not given)
> 65.3 | CCCCOc1ccc(/C=C(\C(=O)O)c2ccc(S(=O)(=O)N3CCCC3)s2)cc1
36.9 | Cc1ccc(NC(=O)CCN2CCN(C)CC2)cc1.Cl
> 49 | O=C(O)CCCNc1ccc(S(=O)(=O)N2CCCCC2)cc1
47.1 (≈ 133 µM) | Cc1onc(-c2c(Cl)cccc2Cl)c1/C(N)=N/OC(=O)C1CC1
> 49.6 | CC(C)(C)NC(=O)N1CCN(c2ncccc2C(F)(F)F)CC1
> 41.8 | CCOc1ccc(NC(=S)N2CCCCCC2)cc1
> 39.5 | CC(=O)c1ccc(O)c(CSc2nncn2C)c1
5.7 (≈ 17.3 µM) | CC(C)N1C(=O)c2ccccc2N(Cc2ccccc2)S1(=O)=O
35.9 (≈ 127 µM) | Cc1ccc(C)n1-c1cc([N+](=O)[O-])ccc1-n1ccnc1
> 39.3 | O=C(NCc1ccccn1)Nc1ccccc1Cl
8.3 (≈ 28 µM) | CCc1ccc(S(=O)(=O)Nc2ccc(Cl)cn2)cc1
> 44 | CC1CCCCC1NC(=O)COc1cccnc1[N+](=O)[O-] (stereo not given)
34.9 (≈ 135 µM) | CCc1cccc(C)c1NC(=O)Cc1ccsc1
> 36.4 | S=C(NCC1CCCO1)NC1CCCCC1 (stereo not given)
32.8 (≈ 139 µM) | CCCCNC(=O)C(=O)NCc1ccncc1
> 37.5 | Cn1cc([N+](=O)[O-])c(C(=O)NCc2ccco2)n1
3.1 (≈ 11 µM) | CCC1OC(c2ccc([N+](=O)[O-])cc2)=Nc2ccccc21 (stereo not given)
38.3 (≈ 138 µM) | CN(c1ccc([N+](=O)[O-])cc1C(N)=O)C1CCCCC1
> 42.3 | Cc1cccnc1N1C(=O)c2ccc(C(=O)O)cc2C1=O

solubility kinetic [µg/mL] | SMILES
1.9 (≈ 5.82 µM) | O=C1OC(Nc2nc(-c3ccc(F)cc3)cs2)c2ccccc21 (stereo not given)
4.8 (≈ 16.7 µM) | Cc1cccc(N2Cc3ccc(Br)cc3C2)c1
< 0.3 | CC(=O)N(Cc1ccccc1)c1nc(-c2ccccc2)cs1
> 45.8 | Cc1ccccc1NC(=O)C(=O)NCCCN1CCOCC1
> 44 | N#C/C(=C\c1cccnc1)C(=O)Nc1ccc(C(=O)O)cc1
1.4 (≈ 4.12 µM) | COc1cccc(CNC(=O)COC(=O)c2ccc(Cl)s2)c1
> 57.1 | CCC1CCCCN1C(=O)c1cc(S(=O)(=O)N2CCOCC2)ccc1C (stereo not given)
4.4 (≈ 12.8 µM) | CCc1ccccc1NC(=S)N1CCN(c2ccccc2F)CC1
40.5 (≈ 145 µM) | O=C(c1ccccc1CCc1ccccc1)N1CCCC1
42.7 (≈ 130 µM) | CCOC(=O)C1(C)Oc2ccc(S(=O)(=O)CC)cc2NC1=O (stereo not given)
13.6 (≈ 43.5 µM) | c1ccc(CNc2nc(-c3cccnc3)nc3ccccc23)cc1
3.9 (≈ 12.4 µM) | CN(C)c1ccc(C(=O)NCCCSc2ccccc2)cc1
35.9 (≈ 92.4 µM) | Cc1ccc(S(=O)(=O)CCC(=O)N2CCN(c3ccccc3O)CC2)cc1
3.4 (≈ 9.58 µM) | O=C(CNC(=O)c1cccc(OC(F)F)c1)Nc1ccc(Cl)cc1
0.8 (≈ 2.44 µM) | CC1CCCN(c2nc3nonc3nc2Nc2ccccc2F)C1 (stereo not given)
> 44.2 | O=C1C(Cl)=C(N2CCCC2)C(=O)N1c1ccccc1F
> 51.3 | CC(CN1CCCCC1)OC(=O)c1ccc2c(c1)OCCO2.Cl (stereo not given)
1.7 (≈ 4.72 µM) | CCOc1ccccc1C(=O)Nc1ccc(NC(=O)c2ccccc2)cc1
> 55.3 | CSc1sc(C(=O)N(C)C)c2c1S(=O)(=O)N(C)c1ccccc1-2
> 34.1 | CCNC(=O)COC(=O)c1sccc1C
> 32.1 | COCCCn1c(=O)cc(C)[nH]c1=S
14.3 (≈ 47 µM) | CC1CCN(C2=NC(=O)/C(=C/c3ccccc3F)S2)CC1
> 55 | CN(CC(=O)Nc1ccccc1Cl)C(=O)COC(=O)c1cccs1
19.9 (≈ 78.2 µM) | CNC(=O)Nc1ccc(C2SCCS2)cc1

solubility kinetic [µg/mL] | SMILES
3.5 (≈ 11.2 µM) | CC(=O)Nc1cccc(-c2csc(Nc3ncccn3)n2)c1
11 (≈ 33.7 µM) | CC1CC(C)CN(C(=O)COc2ccc([N+](=O)[O-])cc2Cl)C1 (stereo not given)
7.7 (≈ 21.3 µM) | O=C(COC(=O)/C=C/c1ccccc1[N+](=O)[O-])NC(=O)NC1CCCC1
18.1 (≈ 52.4 µM) | Cc1ccc(NC(=O)CCS(=O)(=O)c2cccc3nonc23)cc1
26.1 (≈ 79.7 µM) | O=C(NC1CSCC1OC(=O)c1ccccc1)c1ccccc1 (stereo not given)
> 51.4 | O=C(COC(=O)c1cc(=O)[nH]c2ccccc12)NCc1cccs1
> 44.1 | CCCCCCN1C2=NCCCN2c2ccccc21.Cl
0.8 (≈ 2.13 µM) | COc1ccc(-c2cc(=O)[nH]c(N3CCN(Cc4ccccc4)CC3)n2)cc1
38.3 (≈ 111 µM) | CC(NCC(O)c1ccc([N+](=O)[O-])cc1)C12CC3CC(CC(C3)C1)C2 (stereo not given)
> 46.8 | Cc1cc(C)nc(NC(=O)c2ccc(Br)s2)n1
> 54.2 | CCOC(=O)CC1COCCN1Cc1cn(C)nc1-c1ccccc1F (stereo not given)
> 47.7 | Cc1ccnc(NC(=O)CCNC(=O)c2ccccc2Cl)c1
1.3 (≈ 5.01 µM) | COc1ccccc1CNc1ncccc1[N+](=O)[O-]
> 36.7 | CC[C@@H]1C(=O)OC[C@@H]1Cc1cncn1C.Cl
> 41 | CC(OC(=O)c1ccccc1)C(=O)NCc1ccco1 (stereo not given)
> 41.9 | COc1ccc(OCC(=O)OCC(=O)NC2CC2)cc1
8.5 (≈ 31.6 µM) | Nc1nc(C23CC4CC(CC(Cl)(C4)C2)C3)cs1
> 52.7 | O=C(CSc1nc2ccccc2c(=O)n1-c1ccccc1)N1CCC1
> 43.1 | OC(CN1CCC(Cc2ccccc2)CC1)C(F)(F)F (stereo not given)
> 58.3 | CC(=O)c1c(C)[nH]c(C(=O)COC(=O)CN2C(=O)C3CCCCC3C2=O)c1C (stereo not given)
< 0.2 | COc1ccc(C(=O)Nc2ccccc2C(=O)Nc2ccccn2)cc1
> 51.2 | COc1cc(C(=O)Nc2ccc3c(c2)ncn3C)cc(OC)c1OC
6.9 (≈ 18.8 µM) | Cc1ccc(S(=O)(=O)NC(C)C(=O)NCc2ccc(Cl)cc2)cc1 (stereo not given)

SMILES | solubility kinetic [µg/mL]
c1ccc2c3c([nH]c2c1)CNCC3 | > 25.8

Reference: PubChem BioAssay AID1996
